Test results taken from ChEMBL document CHEMBL1201862, “PubChem BioAssay data set” (2004).
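Compound exposure: 48 hours, 5 concentrations, 96-well plates. GI50 is the concentration that inhibits growth by half.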 Activity calls are given as the source filed them. Rule as the data show it: active = GI50 up to about 1.1 µM and inactive = higher.

Columns and labels:
Experiment in all cases: DTP human tumour cell line panel, 48 h
NCI-H460 = system: NCI-H460
HT-29 = system: HT-29
T47D = system: T47D
MDA-MB-231 = system: MDA-MB-231
UO-31 = system: UO-31
CAKI-1 = system: CAKI-1
KM12 = system: KM12
BT-549 = system: BT-549
SK-MEL-5 = system: SK-MEL-5
HCT-116 = system: HCT-116
SF-268 = system: SF-268
DU-145 = system: DU-145
NCI-H226 = system: NCI-H226
SNB-19 = system: SNB-19
OVCAR-3 = system: OVCAR-3
Hs-578T = system: Hs-578T
PC-3 = system: PC-3
SNB-75 = system: SNB-75
M14 = system: M14
UACC-257 = system: UACC-257

Row | SMILES | GI50 (NCI-H460) | GI50 (HT-29) | GI50 (T47D) | GI50 (MDA-MB-231) | GI50 (UO-31) | GI50 (CAKI-1) | GI50 (KM12) | GI50 (BT-549) | GI50 (SK-MEL-5) | GI50 (HCT-116) | GI50 (SF-268) | GI50 (DU-145) | GI50 (NCI-H226) | GI50 (SNB-19) | GI50 (OVCAR-3) | GI50 (Hs-578T) | GI50 (PC-3) | GI50 (SNB-75) | GI50 (M14) | GI50 (UACC-257)
1 | CC/C(=N\NC(=O)c1cccnc1)c1ccc2c(c1)OCCO2 | > 100 µM (inactive) | > 100 µM (inactive) | > 100 µM (inactive) | 74.8 µM (inactive) | > 100 µM (inactive) | > 100 µM (inactive) | 96.6 µM (inactive) | > 100 µM (inactive) | 33.7 µM (inactive) | > 100 µM (inactive) | > 100 µM (inactive) | > 100 µM (inactive) | > 100 µM (inactive) | > 100 µM (inactive) | > 100 µM (inactive) | 12.4 µM (inactive) | > 100 µM (inactive) | > 100 µM (inactive) | > 100 µM (inactive) | 
2 | COC(=O)c1cccc2c1Oc1ccccc1S2 | 44.3 µM (inactive) | 25.9 µM (inactive) | 32.3 µM (inactive) | 38.7 µM (inactive) | 31.8 µM (inactive) | 14.5 µM (inactive) | 12 µM (inactive) | 60.3 µM (inactive) | 18.9 µM (inactive) | 47.1 µM (inactive) | 38.8 µM (inactive) | > 100 µM (inactive) | 37.4 µM (inactive) | 41.2 µM (inactive) | > 100 µM (inactive) | 40.6 µM (inactive) | 63.2 µM (inactive) | 24.1 µM (inactive) | > 100 µM (inactive) | > 100 µM (inactive)
3 | CC1=NN2C(=N)/C(=C/c3ccco3)C(=O)N=C2S1 | > 100 µM (inactive) | > 100 µM (inactive) | > 100 µM (inactive) | > 100 µM (inactive) | > 100 µM (inactive) | > 100 µM (inactive) | > 100 µM (inactive) | > 100 µM (inactive) | > 100 µM (inactive) | > 100 µM (inactive) | > 100 µM (inactive) | > 100 µM (inactive) | > 100 µM (inactive) | > 100 µM (inactive) | > 100 µM (inactive) | > 100 µM (inactive) | > 100 µM (inactive) | > 100 µM (inactive) | > 100 µM (inactive) | > 100 µM (inactive)
4 | N/C(=N\c1ccc(Cl)cc1)NS(=O)(=O)c1ccc(-c2ccccn2)s1 | 17.7 µM (inactive) | 18.3 µM (inactive) | 12.8 µM (inactive) | 14.2 µM (inactive) | 17.7 µM (inactive) | 2.07 µM (inactive) | 29.7 µM (inactive) | 17.3 µM (inactive) | 15.8 µM (inactive) | 16.9 µM (inactive) | 17.3 µM (inactive) | 17 µM (inactive) | 17.3 µM (inactive) | 16.3 µM (inactive) | 22.8 µM (inactive) | 24.8 µM (inactive) | 14.2 µM (inactive) | 21.8 µM (inactive) | 17.8 µM (inactive) | 7.91 µM (inactive)
5 | Cc1cc(S(=O)(=O)Nc2nc(N)n[nH]2)c(S)cc1Cl | > 10 µM (inactive) | > 10 µM (inactive) | > 10 µM (inactive) | > 10 µM (inactive) |  | > 10 µM (inactive) | > 10 µM (inactive) | > 10 µM (inactive) | > 10 µM (inactive) | > 10 µM (inactive) | > 10 µM (inactive) | > 10 µM (inactive) | > 10 µM (inactive) | > 10 µM (inactive) | > 10 µM (inactive) | > 10 µM (inactive) | > 10 µM (inactive) | > 10 µM (inactive) | > 10 µM (inactive) | > 10 µM (inactive)
6 | O=C(CNCc1ccccc1)Oc1c(Cl)c(Cl)c(Cl)c(Cl)c1Cl | 38.9 µM (inactive) | 32.7 µM (inactive) | 25.7 µM (inactive) | 25.4 µM (inactive) | 20.6 µM (inactive) | 25.3 µM (inactive) | 21.8 µM (inactive) | 17.3 µM (inactive) |  | > 100 µM (inactive) | 37.5 µM (inactive) | 15.9 µM (inactive) | 28.4 µM (inactive) | 28.6 µM (inactive) | 22.5 µM (inactive) | 17.3 µM (inactive) | 22.1 µM (inactive) | 33.6 µM (inactive) | 77.8 µM (inactive) | 23.1 µM (inactive)
7 | O=C(Cn1ccnc1[N+](=O)[O-])N(CCO)CCO | > 1250 µM (inactive) | > 250 µM (inactive) | > 250 µM (inactive) | > 250 µM (inactive) | > 250 µM (inactive) | > 250 µM (inactive) | > 250 µM (inactive) | > 250 µM (inactive) | > 141 µM (inactive) | > 250 µM (inactive) | > 250 µM (inactive) | > 250 µM (inactive) | > 250 µM (inactive) | > 250 µM (inactive) | > 250 µM (inactive) | > 250 µM (inactive) | > 250 µM (inactive) | > 1250 µM (inactive) | > 250 µM (inactive) | > 250 µM (inactive)
8 | COC(=O)c1ccccc1C1CN=NC12Cc1c(C)c3c(c(C)c1C2=O)CCC3 (configuration not stated) | > 100 µM (inactive) | 40.1 µM (inactive) | > 100 µM (inactive) | 23.6 µM (inactive) | > 100 µM (inactive) | > 100 µM (inactive) | > 100 µM (inactive) | > 100 µM (inactive) | > 100 µM (inactive) | 37.6 µM (inactive) | > 100 µM (inactive) | > 100 µM (inactive) | > 100 µM (inactive) | > 100 µM (inactive) | > 100 µM (inactive) | > 100 µM (inactive) | > 100 µM (inactive) | 40.6 µM (inactive) | > 100 µM (inactive) | 25.2 µM (inactive)
9 | CCCCSC1=N/C(=C\c2ccc(N(C)C)cc2)C(=O)N1 | 20.8 µM (inactive) | 11.9 µM (inactive) | 18.7 µM (inactive) | 24 µM (inactive) |  | 35.6 µM (inactive) | 18 µM (inactive) | > 100 µM (inactive) | 50.5 µM (inactive) | 25 µM (inactive) | 32.8 µM (inactive) | 60.1 µM (inactive) | 18 µM (inactive) | 31.7 µM (inactive) | 27 µM (inactive) | 25.2 µM (inactive) | 0.256 µM (active) | 35.5 µM (inactive) | 38.9 µM (inactive) | 20.4 µM (inactive)
10 | O=c1cc(N2CCOCC2)[nH]c(=O)n1-c1ccc(F)cc1 | > 100 µM (inactive) | > 100 µM (inactive) | > 100 µM (inactive) | > 100 µM (inactive) |  | > 100 µM (inactive) | > 100 µM (inactive) | > 100 µM (inactive) |  | > 100 µM (inactive) | > 100 µM (inactive) | > 100 µM (inactive) | > 100 µM (inactive) | > 100 µM (inactive) | > 100 µM (inactive) | > 100 µM (inactive) | > 100 µM (inactive) | > 100 µM (inactive) | > 100 µM (inactive) | > 100 µM (inactive)
11 | CC1(C)C2CC3C4CC5(Nc6ccccc6C5N41)[C@]3(C)CC2=O (some centres not stated) | > 50 µM (inactive) | > 50 µM (inactive) | 9.82 µM (inactive) | > 50 µM (inactive) | > 50 µM (inactive) | > 50 µM (inactive) | > 50 µM (inactive) | > 50 µM (inactive) | > 50 µM (inactive) | > 50 µM (inactive) | > 50 µM (inactive) | > 50 µM (inactive) | > 50 µM (inactive) |  | > 50 µM (inactive) | > 50 µM (inactive) | > 50 µM (inactive) | > 50 µM (inactive) |  | > 50 µM (inactive)
12 | COc1ccc(C2C3=C(N=C4SC(C(C)=O)=C(C)N42)c2ccccc2CC3)cc1 (configuration not stated) |  | 6.52 µM (inactive) | 31.8 µM (inactive) | > 100 µM (inactive) | 91.6 µM (inactive) |  | 38.6 µM (inactive) | 81.8 µM (inactive) | 50.5 µM (inactive) | 15 µM (inactive) | > 100 µM (inactive) | > 100 µM (inactive) | 18.7 µM (inactive) | > 100 µM (inactive) | > 100 µM (inactive) | 69 µM (inactive) | > 100 µM (inactive) | > 100 µM (inactive) | > 100 µM (inactive) | 73.3 µM (inactive)
13 | CCOC(=O)c1nc2ccc(C(F)(F)F)cc2nc1Oc1ccc(C(=O)OC)cc1 | 54.5 µM (inactive) | 81.7 µM (inactive) | > 100 µM (inactive) | 80.7 µM (inactive) | > 100 µM (inactive) | > 100 µM (inactive) | 56.4 µM (inactive) | 39.1 µM (inactive) | 43.1 µM (inactive) | > 100 µM (inactive) | 76.4 µM (inactive) | 55.7 µM (inactive) | 45.5 µM (inactive) | 46.8 µM (inactive) |  | 33.2 µM (inactive) | 32.5 µM (inactive) | 50.4 µM (inactive) | 57.1 µM (inactive) | > 100 µM (inactive)
14 | CN1CN(c2ccccc2)C2(CCN(Cc3nc4ccccc4s3)CC2)C1=O |  | 17 µM (inactive) | 16.2 µM (inactive) | 14.1 µM (inactive) | 14.6 µM (inactive) | 20.1 µM (inactive) |  | 16.1 µM (inactive) | 16.1 µM (inactive) | 14.8 µM (inactive) | 20.3 µM (inactive) | 17.9 µM (inactive) | 16.4 µM (inactive) | 15 µM (inactive) | 15.7 µM (inactive) | 18.7 µM (inactive) | 14.2 µM (inactive) | 16.7 µM (inactive) | 13.5 µM (inactive) | 16.6 µM (inactive)
